Measurements published in ChEMBL document CHEMBL4725292 (J Med Chem, 2020).

Assays:
[1] = target: Bromodomain-containing protein 2 (Homo sapiens, UniProt P25440); assay: Binding affinity to human partial length BRD2 bromodomain 2 isoform 1 (E348 to D455 residues) expressed in bacterial expression system by BROMOscan assay
[2] = target: Transcription initiation factor TFIID subunit 1 (Homo sapiens, UniProt P21675); assay: Displacement of AlexaFluor 488-labelled BD-AF488 from TAF1 BD2 (unknown origin) incubated for 15 mins by TR-FRET assay
[3] = Permeability of the compound in pH 7.4 phosphate buffer measured after 3 hrs by artificial membrane permeability assay based HPLC analysis; format: ADME; conditions: PAMPA, pH 7.4, read-out: permeability
Protein polybromo-1 = Protein polybromo-1 (Homo sapiens, UniProt Q86U86); assay: Binding affinity to human partial length PBRM1 bromodomain 5 (S645 to D766 residues) expressed in bacterial expression system by BROMOscan assay
[4] = Intrinsic clearance in mouse hepatocytes at 0.5 uM by LC-MS/MS analysis; format: ADME, cell-based, Hepatocyte
[5] = Inhibition of LPS-induced MCP1 production in PBMC (unknown origin); format: functional, tissue-based
[6] = target: Bromodomain-containing protein 3 (Homo sapiens, UniProt Q15059); assay: Binding affinity to full length BRD3 BD1 in human HuT78 cell lysates incubated for 45 mins by liquid chromatography-mass spectrometry based chemoproteomic binding assay; format: subcellular
Chain of Bromodomain-containing protein 3 (Q15059 whole entry): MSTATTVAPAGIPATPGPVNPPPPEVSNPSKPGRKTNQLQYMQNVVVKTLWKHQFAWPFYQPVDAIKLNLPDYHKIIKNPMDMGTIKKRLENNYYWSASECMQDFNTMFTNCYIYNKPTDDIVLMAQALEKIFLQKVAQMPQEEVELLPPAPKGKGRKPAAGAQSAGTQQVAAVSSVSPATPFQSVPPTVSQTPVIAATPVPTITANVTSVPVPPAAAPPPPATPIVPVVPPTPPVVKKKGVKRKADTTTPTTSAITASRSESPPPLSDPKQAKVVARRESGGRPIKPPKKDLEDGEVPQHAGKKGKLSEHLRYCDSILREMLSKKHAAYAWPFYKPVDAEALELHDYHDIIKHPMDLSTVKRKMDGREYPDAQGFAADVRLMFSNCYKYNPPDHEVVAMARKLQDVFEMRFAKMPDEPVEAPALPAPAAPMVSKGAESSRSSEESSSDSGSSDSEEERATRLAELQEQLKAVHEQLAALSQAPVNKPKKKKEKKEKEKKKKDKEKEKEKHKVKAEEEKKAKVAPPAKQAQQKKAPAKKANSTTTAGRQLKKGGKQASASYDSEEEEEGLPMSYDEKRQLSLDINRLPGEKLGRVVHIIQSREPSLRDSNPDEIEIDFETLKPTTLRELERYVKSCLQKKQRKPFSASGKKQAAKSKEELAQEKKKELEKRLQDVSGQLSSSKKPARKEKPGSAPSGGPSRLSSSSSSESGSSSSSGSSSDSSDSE

Chain of Protein polybromo-1 (Q86U86 whole entry, the tested form may be a part): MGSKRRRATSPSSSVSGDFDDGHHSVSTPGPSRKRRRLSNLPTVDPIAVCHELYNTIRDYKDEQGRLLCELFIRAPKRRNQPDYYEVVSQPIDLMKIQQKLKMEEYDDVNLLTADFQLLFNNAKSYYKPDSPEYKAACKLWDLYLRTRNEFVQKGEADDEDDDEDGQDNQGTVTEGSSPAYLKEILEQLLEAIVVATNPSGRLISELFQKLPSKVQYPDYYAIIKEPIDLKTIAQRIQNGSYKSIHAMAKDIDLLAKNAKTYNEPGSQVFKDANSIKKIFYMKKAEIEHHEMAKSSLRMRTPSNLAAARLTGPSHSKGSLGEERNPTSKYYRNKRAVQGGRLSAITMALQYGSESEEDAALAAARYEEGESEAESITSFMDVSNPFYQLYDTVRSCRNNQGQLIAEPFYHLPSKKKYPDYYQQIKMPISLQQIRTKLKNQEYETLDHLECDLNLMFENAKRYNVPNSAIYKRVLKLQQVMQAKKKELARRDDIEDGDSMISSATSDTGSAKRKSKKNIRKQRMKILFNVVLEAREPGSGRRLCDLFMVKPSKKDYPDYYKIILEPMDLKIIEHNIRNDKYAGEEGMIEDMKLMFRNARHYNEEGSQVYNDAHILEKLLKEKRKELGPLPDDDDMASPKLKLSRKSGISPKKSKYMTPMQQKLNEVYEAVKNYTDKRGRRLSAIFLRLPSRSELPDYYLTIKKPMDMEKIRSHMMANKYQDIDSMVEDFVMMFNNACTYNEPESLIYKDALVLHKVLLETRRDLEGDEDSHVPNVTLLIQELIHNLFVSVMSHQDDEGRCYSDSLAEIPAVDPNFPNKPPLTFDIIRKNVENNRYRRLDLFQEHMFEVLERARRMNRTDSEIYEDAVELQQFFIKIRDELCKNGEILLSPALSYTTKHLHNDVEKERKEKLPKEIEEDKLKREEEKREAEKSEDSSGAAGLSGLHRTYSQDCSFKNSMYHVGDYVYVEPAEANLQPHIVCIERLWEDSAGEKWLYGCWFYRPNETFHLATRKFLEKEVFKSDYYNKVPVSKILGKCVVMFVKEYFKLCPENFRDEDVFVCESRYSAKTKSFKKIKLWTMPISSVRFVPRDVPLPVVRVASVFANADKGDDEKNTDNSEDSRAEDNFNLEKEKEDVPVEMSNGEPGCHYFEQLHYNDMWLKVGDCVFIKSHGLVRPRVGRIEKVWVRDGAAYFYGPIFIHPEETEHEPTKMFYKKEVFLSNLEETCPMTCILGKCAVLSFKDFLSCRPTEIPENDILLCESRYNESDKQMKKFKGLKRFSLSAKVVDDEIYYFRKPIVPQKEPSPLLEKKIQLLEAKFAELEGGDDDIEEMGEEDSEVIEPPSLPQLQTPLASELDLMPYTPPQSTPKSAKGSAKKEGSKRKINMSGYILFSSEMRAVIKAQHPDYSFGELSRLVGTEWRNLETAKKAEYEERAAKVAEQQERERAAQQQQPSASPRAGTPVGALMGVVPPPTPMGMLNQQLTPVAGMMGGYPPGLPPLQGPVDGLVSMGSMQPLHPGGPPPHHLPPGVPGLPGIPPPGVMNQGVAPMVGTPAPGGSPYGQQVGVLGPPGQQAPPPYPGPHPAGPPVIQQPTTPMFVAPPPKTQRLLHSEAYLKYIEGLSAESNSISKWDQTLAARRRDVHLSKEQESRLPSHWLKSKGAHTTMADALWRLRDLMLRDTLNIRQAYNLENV
Chain of Bromodomain-containing protein 2 (P25440 whole entry, the tested form may be a part, canonical isoform): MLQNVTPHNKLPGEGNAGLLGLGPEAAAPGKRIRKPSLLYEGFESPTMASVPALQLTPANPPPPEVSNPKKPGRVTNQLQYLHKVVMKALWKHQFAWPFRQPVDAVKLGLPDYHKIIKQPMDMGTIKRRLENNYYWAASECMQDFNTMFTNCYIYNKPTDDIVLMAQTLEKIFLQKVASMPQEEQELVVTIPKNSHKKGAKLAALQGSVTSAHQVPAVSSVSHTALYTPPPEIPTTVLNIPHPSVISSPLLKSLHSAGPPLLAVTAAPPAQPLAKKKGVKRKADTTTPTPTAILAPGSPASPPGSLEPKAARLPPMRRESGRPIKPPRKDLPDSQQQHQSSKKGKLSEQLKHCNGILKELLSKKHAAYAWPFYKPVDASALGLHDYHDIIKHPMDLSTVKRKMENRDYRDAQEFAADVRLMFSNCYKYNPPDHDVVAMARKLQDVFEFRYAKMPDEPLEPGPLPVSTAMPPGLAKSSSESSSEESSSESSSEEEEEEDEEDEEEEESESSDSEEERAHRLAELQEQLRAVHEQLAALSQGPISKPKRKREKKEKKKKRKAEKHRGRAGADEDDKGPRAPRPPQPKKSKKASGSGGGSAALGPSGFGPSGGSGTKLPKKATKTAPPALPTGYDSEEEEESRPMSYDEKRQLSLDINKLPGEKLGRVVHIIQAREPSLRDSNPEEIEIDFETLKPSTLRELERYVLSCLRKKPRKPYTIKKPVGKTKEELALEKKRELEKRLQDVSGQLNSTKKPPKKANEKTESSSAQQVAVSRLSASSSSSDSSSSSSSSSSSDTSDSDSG
Chain of Transcription initiation factor TFIID subunit 1 (P21675 whole entry): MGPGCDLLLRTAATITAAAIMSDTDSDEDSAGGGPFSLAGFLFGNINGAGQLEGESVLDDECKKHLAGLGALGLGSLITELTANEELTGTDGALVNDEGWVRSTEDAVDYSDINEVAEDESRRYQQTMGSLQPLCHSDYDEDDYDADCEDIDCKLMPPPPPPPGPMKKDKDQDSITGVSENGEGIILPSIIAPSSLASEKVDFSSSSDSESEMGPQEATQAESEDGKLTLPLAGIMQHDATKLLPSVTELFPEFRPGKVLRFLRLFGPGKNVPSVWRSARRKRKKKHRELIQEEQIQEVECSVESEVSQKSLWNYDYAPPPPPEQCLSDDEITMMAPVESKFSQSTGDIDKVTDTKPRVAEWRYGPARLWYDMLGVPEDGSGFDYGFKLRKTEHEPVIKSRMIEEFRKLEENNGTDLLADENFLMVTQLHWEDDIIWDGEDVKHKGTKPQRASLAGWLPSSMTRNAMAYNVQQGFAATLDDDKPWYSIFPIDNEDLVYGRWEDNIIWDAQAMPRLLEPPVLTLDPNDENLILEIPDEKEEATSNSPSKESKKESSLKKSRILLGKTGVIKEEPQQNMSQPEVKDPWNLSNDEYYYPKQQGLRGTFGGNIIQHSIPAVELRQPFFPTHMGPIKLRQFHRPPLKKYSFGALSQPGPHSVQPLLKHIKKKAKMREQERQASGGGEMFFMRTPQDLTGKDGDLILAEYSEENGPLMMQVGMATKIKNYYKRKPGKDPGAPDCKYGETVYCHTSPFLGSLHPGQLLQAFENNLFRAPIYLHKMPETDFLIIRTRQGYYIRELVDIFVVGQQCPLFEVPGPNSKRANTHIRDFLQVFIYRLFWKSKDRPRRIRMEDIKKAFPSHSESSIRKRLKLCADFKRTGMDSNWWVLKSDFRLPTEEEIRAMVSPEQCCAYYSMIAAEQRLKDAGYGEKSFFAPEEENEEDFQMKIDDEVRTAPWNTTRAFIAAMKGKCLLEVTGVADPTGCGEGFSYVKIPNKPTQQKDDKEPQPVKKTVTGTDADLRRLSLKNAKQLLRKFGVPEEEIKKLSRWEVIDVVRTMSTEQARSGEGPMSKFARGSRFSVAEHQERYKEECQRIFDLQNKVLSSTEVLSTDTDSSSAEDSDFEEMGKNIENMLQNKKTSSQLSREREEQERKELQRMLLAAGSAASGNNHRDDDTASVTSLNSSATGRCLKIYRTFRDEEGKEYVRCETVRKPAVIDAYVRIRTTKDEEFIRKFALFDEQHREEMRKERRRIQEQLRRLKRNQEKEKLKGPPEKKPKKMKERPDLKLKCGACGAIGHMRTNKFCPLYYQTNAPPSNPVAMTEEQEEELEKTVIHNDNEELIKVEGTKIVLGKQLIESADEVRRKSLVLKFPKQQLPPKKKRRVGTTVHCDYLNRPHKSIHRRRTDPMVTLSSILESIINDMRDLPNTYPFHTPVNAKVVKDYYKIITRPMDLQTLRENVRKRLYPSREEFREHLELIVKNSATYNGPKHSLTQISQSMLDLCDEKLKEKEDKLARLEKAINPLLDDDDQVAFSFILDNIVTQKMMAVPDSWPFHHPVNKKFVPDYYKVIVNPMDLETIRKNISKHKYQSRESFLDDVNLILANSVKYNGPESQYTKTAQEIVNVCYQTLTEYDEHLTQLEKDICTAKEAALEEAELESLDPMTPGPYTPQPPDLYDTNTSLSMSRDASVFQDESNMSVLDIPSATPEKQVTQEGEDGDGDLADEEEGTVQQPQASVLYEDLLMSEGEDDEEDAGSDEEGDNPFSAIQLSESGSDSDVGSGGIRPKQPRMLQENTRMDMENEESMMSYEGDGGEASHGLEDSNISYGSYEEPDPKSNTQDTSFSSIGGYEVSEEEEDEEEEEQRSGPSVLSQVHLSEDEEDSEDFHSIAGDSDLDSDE

Kd [1]: 25.1 µM
IC50 [2]: 10 µM
Papp at 3 h [3]: 19 ×10⁻⁶ cm/s
Kd (Protein polybromo-1): 10 µM
CLH [4]: 8.15 mL/min/g
IC50 [5]: 20 nM
Kd [6]: 3.98 nM
Compound: Cc1cc2c(-c3ccco3)cnc(N[C@@H]3CCN(C)C[C@H]3C(=O)NC3CCCCC3)c2[nH]c1=O [GSK789]
